Measured values: patent US4309559A, “Sulphonamides useful as pesticides” (FBC Limited, priority 1977, dated 1982)

Key:
Assay type in all cases: in vivo
[1] = system: Wheat (Triticum aestivum); assay: Post-emergence foliar spray of monocotyledons, wheat; settings: foliar spray 2.8 kg/ha, 14 days, 0=no effect, 100=complete kill
Procedure: (§1) Seeds of the monocotyledon species listed below were sown in anodised aluminium pans, 19 cm long×9.5 cm wide×5.0 cm deep, containing John Innes I potting compost. They were then watered and placed in a controlled environment room (22° C.; 65-85% relative humidity; 14 hours per day artificial illumination at 17,000 lux). 14 days after sowing, the seedlings were given a foliar spray of the compound of Example 44, formulated as an aqueous suspension together with 2000 ppm of the wetting agent Lissapol NX. The dosage rate was adjusted to be 2.8 kg active ingredient in 450 liters per hectare. After a further 14 days in the controlled environment room, the plants were visually assessed for any growth regulatory or herbicidal effect. All differences from an untreated control were scored on a scale from 0-100 where 0 signifies no effect and 100 signifies complete kill.
(§2) The compounds listed below were tested according to the procedure of Example 66 but including rice (Oryza sativa) as an additional test species.

[2] = system: Barley (Hordeum vulgare); assay: Post-emergence foliar spray of monocotyledons, barley; settings: foliar spray 2.8 kg/ha, 14 days, 0=no effect, 100=complete kill
Procedure: as §1, §2

[3] = system: Barnyardgrass (Echinochloa crus-galli); assay: Post-emergence foliar spray of monocotyledons, barnyardgrass; settings: foliar spray 2.8 kg/ha, 14 days, 0=no effect, 100=complete kill
Procedure: as §1, §2

[4] = system: rice (Oryza sativa); assay: Post-emergence foliar spray of monocotyledons, rice; settings: foliar spray 2.8 kg/ha, 14 days, 0=no effect, 100=complete kill
Procedure: as §1, §2

[5] = system: Cotton; assay: Soil incorporation (I), cotton; settings: 21 days, 0=no effect, 100=complete suppression
Text: (§3) Each of the compounds listed below was formulated as: […]
(§4) (I) an attaclay/sand dust and incorporated in John Innes I potting compost at a rate equivalent to 6.5 and 3.25 parts per million weight/volume of active ingredient to soil and placed in anodised aluminium pans, 19 cm long×9.5 cm wide×5.0 cm high. This is approximately equivalent to a surface application of 2.8 and 1.4 kg active ingredient per hectare cultivated to a depth of 5 cm. Seeds of the species listed below were sown in the treated soil, one species per pan, watered and placed in a controlled environment room (22° C.; 65-85% relative humidity and 14 hours artificial illumination at 17,000 lux) for 21 days.
(§5) The plants were then visually assessed for any growth regulatory or herbicidal effects. All differences from an untreated control were scored on a scale from 0-100, where 0 signifies no effect and 100 signifies complete suppression.
(§6) The results are shown in the following table where I stands for soil incorporation and II for surface spray.

[6] = system: Tomato; assay: Soil incorporation (I), tomato; settings: 21 days, 0=no effect, 100=complete suppression
Text: as §3, §4, §5, §6

[7] = system: Wheat; assay: Soil incorporation (I), wheat; settings: 21 days, 0=no effect, 100=complete suppression
Text: as §3, §4, §5, §6

[8] = system: Barley; assay: Soil incorporation (I), barley; settings: 21 days, 0=no effect, 100=complete suppression
Text: as §3, §4, §5, §6

[9] = system: Barnyard Grass; assay: Soil incorporation (I), barnyard grass; settings: 21 days, 0=no effect, 100=complete suppression
Text: as §3, §4, §5, §6

[10] = system: Rice; assay: Soil incorporation (I), rice; settings: 21 days, 0=no effect, 100=complete suppression
Text: as §3, §4, §5, §6

[11] = system: Cotton; assay: Surface spray (II), cotton; settings: 21 days, 0=no effect, 100=complete suppression
Text: as §3
(§7) (II) An aqueous suspension together with 1000 ppm of the wetting agent Lissapol NX. The surfaces of an additional set of pans with seeds already sown were then sprayed with 2.8 or 1.4 kg/ha in 450 liters/hectare, and the pans kept in the controlled environment room for 21 days.
as §5, §6

[12] = system: Tomato; assay: Surface spray (II), tomato; settings: 21 days, 0=no effect, 100=complete suppression
Text: as §3, §7, §5, §6

[13] = system: Wheat; assay: Surface spray (II), wheat; settings: 21 days, 0=no effect, 100=complete suppression
Text: as §3, §7, §5, §6

[14] = system: Barley; assay: Surface spray (II), barley; settings: 21 days, 0=no effect, 100=complete suppression
Text: as §3, §7, §5, §6

[15] = system: Barnyard Grass; assay: Surface spray (II), barnyard grass; settings: 21 days, 0=no effect, 100=complete suppression
Text: as §3, §7, §5, §6

[16] = system: Rice; assay: Surface spray (II), rice; settings: 21 days, 0=no effect, 100=complete suppression
Text: as §3, §7, §5, §6

[17] = system: Carrot; assay: Soil incorporation (I), carrot; settings: 21 days, 0=no effect, 100=complete suppression
Text: as §3, §4, §5, §6

[18] = system: Carrot; assay: Surface spray (II), carrot; settings: 21 days, 0=no effect, 100=complete suppression
Text: as §3, §7, §5, §6

Row | Structure (SMILES) | growth regulatory or herbicidal effect score [1] | growth regulatory or herbicidal effect score [2] | growth regulatory or herbicidal effect score [3] | growth regulatory or herbicidal effect score [4] | growth regulatory or herbicidal effect score ([5]; I soil incorporation 3.25 ppm) | growth regulatory or herbicidal effect score ([5]; I soil incorporation 6.5 ppm) | growth regulatory or herbicidal effect score ([6]; I soil incorporation 3.25 ppm) | growth regulatory or herbicidal effect score ([6]; I soil incorporation 6.5 ppm) | growth regulatory or herbicidal effect score ([7]; I soil incorporation 3.25 ppm) | growth regulatory or herbicidal effect score ([7]; I soil incorporation 6.5 ppm) | growth regulatory or herbicidal effect score ([8]; I soil incorporation 3.25 ppm) | growth regulatory or herbicidal effect score ([8]; I soil incorporation 6.5 ppm) | growth regulatory or herbicidal effect score ([9]; I soil incorporation 3.25 ppm) | growth regulatory or herbicidal effect score ([9]; I soil incorporation 6.5 ppm) | growth regulatory or herbicidal effect score ([10]; I soil incorporation 3.25 ppm) | growth regulatory or herbicidal effect score ([10]; I soil incorporation 6.5 ppm) | growth regulatory or herbicidal effect score ([11]; row 3.25 ppm (1.4 kg/ha)) | growth regulatory or herbicidal effect score ([11]; row 6.5 ppm (2.8 kg/ha)) | growth regulatory or herbicidal effect score ([12]; row 3.25 ppm (1.4 kg/ha)) | growth regulatory or herbicidal effect score ([12]; row 6.5 ppm (2.8 kg/ha)) | also measured
1 | Cc1ccc(N(CC(N)=S)S(C)(=O)=O)cc1Cl [Example 150] | 0 | 0 | 80 | 0 | 0 | 0 | 0 | 0 | 0 | 0 | 0 | 0 | 60 | 60 | 0 | 0 | 0 | 0 | 0 | 0 | growth regulatory or herbicidal effect score ([13]; row 3.25 ppm (1.4 kg/ha)): 0; growth regulatory or herbicidal effect score ([13]; row 6.5 ppm (2.8 kg/ha)): 0; growth regulatory or herbicidal effect score ([14]; row 3.25 ppm (1.4 kg/ha)): 0; growth regulatory or herbicidal effect score ([14]; row 6.5 ppm (2.8 kg/ha)): 0; growth regulatory or herbicidal effect score ([15]; row 3.25 ppm (1.4 kg/ha)): 50; growth regulatory or herbicidal effect score ([15]; row 6.5 ppm (2.8 kg/ha)): 70; growth regulatory or herbicidal effect score ([16]; row 3.25 ppm (1.4 kg/ha)): 0; growth regulatory or herbicidal effect score ([16]; row 6.5 ppm (2.8 kg/ha)): 0
2 | Cc1ccc(N(CC#N)S(C)(=O)=O)cc1Cl [Example 131] | 5 | 10 | 90 | 0 | 0 | 0 | 0 | 0 | 0 | 0 | 0 | 0 | 50 | 70 | 0 | 0 | 0 | 0 | 0 | 0 | growth regulatory or herbicidal effect score ([17]; I soil incorporation 3.25 ppm): 0; growth regulatory or herbicidal effect score ([17]; I soil incorporation 6.5 ppm): 0; growth regulatory or herbicidal effect score ([13]; row 3.25 ppm (1.4 kg/ha)): 0; growth regulatory or herbicidal effect score ([13]; row 6.5 ppm (2.8 kg/ha)): 0; growth regulatory or herbicidal effect score ([14]; row 3.25 ppm (1.4 kg/ha)): 0; growth regulatory or herbicidal effect score ([14]; row 6.5 ppm (2.8 kg/ha)): 0; growth regulatory or herbicidal effect score ([15]; row 3.25 ppm (1.4 kg/ha)): 60; growth regulatory or herbicidal effect score ([15]; row 6.5 ppm (2.8 kg/ha)): 80; growth regulatory or herbicidal effect score ([16]; row 3.25 ppm (1.4 kg/ha)): 0; growth regulatory or herbicidal effect score ([16]; row 6.5 ppm (2.8 kg/ha)): 0; growth regulatory or herbicidal effect score ([18]; row 3.25 ppm (1.4 kg/ha)): 0; growth regulatory or herbicidal effect score ([18]; row 6.5 ppm (2.8 kg/ha)): 0
3 | CCS(=O)(=O)N(CC#N)c1ccc(Cl)c(Cl)c1 [Example 137] | 0 | 0 | 80 | 0 | 0 | 0 | 0 | 0 | 0 | 0 | 0 | 0 | 90 | 90 | 0 | 0 | 0 | 0 | 0 | 0 | growth regulatory or herbicidal effect score ([17]; I soil incorporation 3.25 ppm): 0; growth regulatory or herbicidal effect score ([17]; I soil incorporation 6.5 ppm): 0; growth regulatory or herbicidal effect score ([13]; row 3.25 ppm (1.4 kg/ha)): 0; growth regulatory or herbicidal effect score ([13]; row 6.5 ppm (2.8 kg/ha)): 0; growth regulatory or herbicidal effect score ([14]; row 3.25 ppm (1.4 kg/ha)): 0; growth regulatory or herbicidal effect score ([14]; row 6.5 ppm (2.8 kg/ha)): 0; growth regulatory or herbicidal effect score ([15]; row 3.25 ppm (1.4 kg/ha)): 90; growth regulatory or herbicidal effect score ([15]; row 6.5 ppm (2.8 kg/ha)): 100; growth regulatory or herbicidal effect score ([16]; row 3.25 ppm (1.4 kg/ha)): 0; growth regulatory or herbicidal effect score ([16]; row 6.5 ppm (2.8 kg/ha)): 0; growth regulatory or herbicidal effect score ([18]; row 3.25 ppm (1.4 kg/ha)): 0; growth regulatory or herbicidal effect score ([18]; row 6.5 ppm (2.8 kg/ha)): 0
